Earlier results, collected in patent publication EP3124016B1, “ANTIPSORIATIC EMULSION COMPOSITION COMPRISING CEFAZOLIN” (Warszawski Uniwersytet Medyczny, priority 2015, dated 2017).
Where a name gives a salt, the structure may show the parent alone.

Details: 1% aqueous solution

time for which eye drops were stable (stored at 4°C): 42 days | time for which stability lasted (eye drops, storage in room temperature): only for a few days
SMILES: Cc1nnc(SCC2=C(C(=O)O)N3C(=O)[C@@H](NC(=O)Cn4cnnn4)[C@H]3SC2)s1 [cefazolin sodium salt]
